Key:
[1] = test system: zebrafish larvae; assay: Autophagy reporter zebrafish line (LC3-ZsGreen punctae in skeletal muscle); type: in vivo; conditions: 16 hours of treatment, LC3 punctae with and without ammonium chloride, FIG. 2
Method: After 16 hours of treatment larvae were anesthetized with 0.016% tricaine and imaged with ImageXpress confocal system at 20× magnification (Molecular Devices). Z stack images were captured for each larva and maximal projection images were produced. Ammonium chloride was added for additional 4 hours to block lysosomal degradation. Images were acquired again as before. In order to quantify autophagic flux, number of LC3 punctae have been calculated in presence and in absence of ammonium chloride with MetaXpress software (Molecular Devices) and normalized by zebrafish area.

[2] = test system: liver steatosis in obese mice; assay: Chronic treatment on a model of obesity (high fat diet), liver Oil Red O staining; type: in vivo; conditions: thymol 20 mg/kg/day for 8 weeks, FIG. 4
Method: Mice were fed with high fat diet (Research Diets D12492: 60% fat, 20% protein, 20% carbohydrates) for 8 weeks. Mice were sacrificed by isofluorane inhalation followed by exsanguination. Livers were collected, embedded in OCT and frozen in isopentane. In order to visualize lipid droplets, liver sections of 10 μm were cut and stained by Oil Red O. Lipids size was calculated using imageJ software

[3] = test system: human Jurkat cells; assay: Autophagic flux (LC3-II, flow cytometry) in Jurkat cells; type: cell-based; conditions: thymol 1.95 to 250 μM, LC3-II median fluorescence intensity, FIG. 1
Method: The human lymphocytic T cell line Jurkat (clone E6.1, ATCC TIB-152) has been used to measure autophagic flux in vitro. Cells were grown in RPMI medium with standard conditions (5% CO2, 37° C.) in a humidified atmosphere. For the experiment, cells were washed, counted and incubated at 1*105/well in duplicate in a 96-flat bottom well plate. Experimental conditions included negative controls (0.5% DMSO), rapamycin treatment as positive control (1 uM) and Earle's Balanced Salt Solution (EBSS) as a starvation medium. Cells received Thymol (in RPMI) at different concentrations ranging from 1.95 μM to 250 μM. In parallel, the same experimental conditions were prepared for the incubation with solution A, from the Flow Cellect Autophagy Kit from Merck, now Guava Autophagy LC3 antibody-based kit. The treatment with compound A blocks the lysosomal degradation of LC3 vesicles and is used to measure autophagic flux. Cells were incubated with thymol at 37° for 1.30 h. Solution A was added for additional 30 minutes. Cells were then transferred in a 96 V bottom plate for the LC3 antibody detection using the Guava Autophagy LC3 antibody-based kit, according the manufacturer's instructions. […] Offline analysis was performed with FCS Express Software and results were expressed as the median fluorescence intensity in the FITC channel (related to the amount of LC3-II present in the cells.)

Structure (SMILES): Cc1ccc(C(C)C)c(O)c1 [thymol]
- concentration from which thymol induced autophagy in a dose dependent manner [1]: ≥ 50 µM
- liver steatosis [2]: reduction of liver steatosis
- concentration from which thymol induced autophagy in a dose dependent manner [3]: ≥ 125 µM
